From US20190300857A1, “UNDIFFERENTIATED STEM CELL-REMOVING AGENT, AND METHOD FOR REMOVING UNDIFFERENTIATED STEM CELLS” (KEIO UNIVERSITY, priority 2016, published 2019)

Tests used:
Format in all cases: cell-based
[1] = system: 253G4: human induced pluripotent stem cell (human iPS cell) line; experiment: Culture of undifferentiated stem cell line in Orlistat-containing medium, ALP staining of living cells; details: Orlistat 0, 2, 4, 6, 8, 10 μM, 72 hours, StemFit or mTeSR1, FIG. 3
Procedure: (§1) Orlistat (manufactured by Sigma, 04139) was added into StemFit medium (manufactured by AJINOMOTO) or mTeSR1 (manufactured by Stem Cell Technologies) so that each of a final concentration became concentrations as shown in FIG. 3 (2 μM, 4 μM, 6 μM, 8 μM, and 10 μM). Therefore a culture medium according to one embodiment of the present invention was obtained. The following three cell lines were cultured for 72 hours in each of a culture medium not containing Orlistat (0 μM) and the culture media containing Orlistat at each of the above final concentrations. • 253G4: human induced pluripotent stem cell (human iPS cell) line • Ffl14: human induced pluripotent stem cell (human iPS cell) line • H9: human embryonic stem cell (human ES cell) line In regard to the activity of alkaline phosphatase (ALP) that the cells have, after 72 hours of culture, AP staining was performed by color development with […] (registered trademark) alkaline phosphatase staining kit (Sigma 86-R), and cells stained red were confirmed as living cells.

[2] = system: Ffl14: human induced pluripotent stem cell (human iPS cell) line; experiment: as above; details: Orlistat 0, 2, 4, 6, 8, 10 μM, 72 hours, StemFit or mTeSR1, FIG. 3
Procedure: as §1

[3] = system: H9: human embryonic stem cell (human ES cell) line; experiment: as above; details: Orlistat 0, 2, 4, 6, 8, 10 μM, 72 hours, StemFit or mTeSR1, FIG. 3
Procedure: as §1

[4] = system: undifferentiated stem cells expressing OCT4 in cell mixture of cardiomyocytes derived from human iPS cells and human iPS cells; experiment: Culture of cell mixture of iPS-derived cardiomyocytes and iPS cells in Orlistat-containing medium, OCT4 immunostaining; details: Orlistat 10 μM (Orlistat(+)); 72 hours; StemFit or mTeSR1; FIGS. 7 to 8
Procedure: A cell mixture in a state in which purified and refined cardiomyocytes induced from human iPS cells and human iPS cells coexisted was prepared according to the procedure described above. In the cell mixture, immunostaining against OCT4 was performed. The cell mixture was cultured for 72 hours in StemFit medium (manufactured by AJINOMOTO) or mTeSR1 (manufactured by Stem Cell Technologies) containing Orlistat at a final concentration of 10 μM (Orlistat(+)). As a control, culture was carried out in the same manner in StemFit medium (manufactured by AJINOMOTO) or mTeSR1 (manufactured by Stem Cell Technologies) not containing Orlistat (Orlistat(−)). After culturing for 72 hours, cells expressing OCT4 were detected by immunostaining. In addition, the results of DAPI staining are also shown together. The results of three replicate tests in which the number of colonies of cells expressing Oct4 was quantified based on the results are shown in FIG. 8.

[5] = system: human iPS cell line (253G4); experiment: Culture of human iPS cell line with Orlistat with or without palmitic acid, LIVE/DEAD Assay; details: Orlistat 0, 2, 6, 8 μM, 72 hours, FIGS. 13 to 14
Procedure: Orlistat (manufactured by Sigma, 04139) was added into StemFit medium (manufactured by AJINOMOTO) or mTeSR1 (manufactured by Stem Cell Technologies) so that each of a final concentration became concentrations as shown in FIG. 13 (2 μM, 6 μM, and 8 μM). Therefore a culture medium according to one embodiment of the present invention was obtained. Media obtained by adding palmitic acid (final concentration 50 μM), carnitine (final concentration 0.5 mM), and BSA (final concentration 8.3 μM) to each of the culture medium (0 μM) not containing Orlistat and the culture media containing Orlistat at the above final concentrations; and media obtained by adding only carnitine (final concentration 0.5 mM) and BSA (final concentration 8.3 μM) thereto were prepared. The human iPS cell line (253G4) was cultured for 72 hours in each of the above-mentioned media. After 72 hours of culture, live cells were detected with LIVE/DEAD Assay (L3224, manufactured by Thermo Fisher Scientific).

CCCCCCCCCCC[C@@H](C[C@@H]1OC(=O)[C@H]1CCCCCC)OC(=O)[C@H](CC(C)C)NC=O [Orlistat, N-formyl-L-leucine-(1S)-1-[[(2S,3S)-3-hexyl-4-oxo-2-oxetanyl]methyl]dodecyl ester]
cell death of undifferentiated stem cells (ALP staining) [1]: cell death of each undifferentiated stem cell was induced in an Orlistat concentration-dependent manner
cell death of undifferentiated stem cells (ALP staining) [2]: cell death of each undifferentiated stem cell was induced in an Orlistat concentration-dependent manner
cell death of undifferentiated stem cells (ALP staining) [3]: cell death of each undifferentiated stem cell was induced in an Orlistat concentration-dependent manner
residual undifferentiated stem cells expressing OCT4 [4]: no residual undifferentiated stem cells expressing OCT4 were detected
cell death of human iPS cells (LIVE/DEAD Assay) ([5]; culture medium (BSA): only carnitine 0.5 mM and BSA 8.3 μM added): cell death of human iPS cells was induced in an Orlistat concentration-dependent manner
cell death of human iPS cells (LIVE/DEAD Assay) ([5]; culture medium (PA-BSA): palmitic acid 50 μM, carnitine 0.5 mM and BSA 8.3 μM added): cell death of human iPS cells was suppressed
